Experimental data reported in a melting point compilation (Tetko et al.; mined from patent text by program, amines drawn as free bases though some values may be those of a salt).

Row | SMILES | melting point [°C]
1 | Nc1c([N+](=O)[O-])cc(Br)c2c1CN(Cc1ccc(C(F)(F)F)cc1)CC2 | 119 to 120
2 | CCCc1cc(COc2cc(CC)nc(C)c2OC)ccc1-c1ccccc1S(=O)(=O)Nc1noc(C)c1C | 63 to 65
3 | COc1cc(/C=C/C(=O)Nc2ccccc2C(=O)O)ccc1OCc1cccnc1 | 245 to 251
4 | CC(C)(C)N1C(=O)c2ccc(C(=O)Cl)cc2S1(=O)=O | 185 to 186
5 | Nc1ccn(C2C=CC(CO)O2)c(=O)n1 (stereo not given) | 167 to 169
6 | O=C(Nc1ccccc1N1CCc2ccccc21)C1CC1 | 83 to 85
7 | C=C1C=C(Oc2cc(C(=O)Nc3c(Cl)cncc3Cl)ccc2OC)C1(F)F | 102 to 104
8 | CC(C)c1cccc(C(C)C)c1NC(=O)CNC(c1ccc(F)cc1)c1ccc(F)cc1 | 150 to 151
9 | C#CCN(Cc1cc2c(=O)n(C)c(CN3CCOCC3)nc2cc1Cl)c1ccc(C(=O)OC(C)(C)C)cc1 | 140 to 143
10 | CCCCCCCCCCC(O)C1CCC(C2CCC(C(O)CCCCCCCCCCC3CC(CC(C)=O)C(=O)O3)O2)O1 (stereo not given) | 90.5 to 90.7
11 | CC(=O)OCc1c(C)cc(C)c(NC(=O)c2sccc2S(=O)(=O)Nc2onc(C)c2C)c1C | 75 to 77
12 | O=S1(=O)N=CN(C2CC2)c2cc(F)cc(Cl)c21 | 252 to 255
13 | COC(=O)C1=Cc2cc(-c3ccc(OC)cc3)ccc2SCC1 | 117 to 120
14 | CC1CCN(c2c(-c3c(F)cc(F)cc3F)c(Cl)nc3nc(S(C)(=O)=O)nn23)CC1 | 206
15 | Cn1cc(C(O)c2cccc(Cl)c2)cc1C(=O)O (stereo not given) | 180
16 | O=C(CCCN1CCC(C(O)c2cccc3ccccc23)CC1)c1ccc(F)cc1 (stereo not given) | 172 to 174
17 | COc1cc(COc2nn(Cc3ccccc3)cc2C=O)ccc1OCc1nc(-c2ccco2)oc1C | 139 to 140
18 | CNC(=S)OCc1nc(C(C)C)c(Sc2cc(Cl)cc(Cl)c2)n1C | 119 to 121
19 | COc1ccc2c(c1)CC(=O)N2C | 93 to 94
20 | O=C1CC2(CCCC2)CC(=O)N1CCCCN1CCN(c2nsc3ccccc23)CC1 | 128 to 130
21 | CCc1cccc(C)c1CNc1cc(Br)cc2c1nc(C)n2COCc1ccccc1 | 117 to 119
22 | Cc1cc(C(=N)NO)cn2cc(-c3cccc(-c4ccc(C(=N)NO)cc4)c3)nc12 | 193 to 195
23 | O=c1[nH]c(=S)c2[nH]cnc2n1Cc1ccccc1 | 262 to 263
24 | O=C1c2ccccc2S(=O)(=O)N1c1c(F)c(F)nc(F)c1F | 164 to 165
25 | Cc1ccc(-c2c(NS(=O)(=O)c3ccc(C(C)(C)C)cc3)nc(NCCOC3CCCCO3)nc2OCCOc2ncc(Br)cn2)cc1 (stereo not given) | 65 to 69

Row | SMILES | melting point [°C]
26 | CCCCCCCCc1c(CC)nc2nc(Cl)nn2c1N | 202 to 203
27 | COc1cc(OC)c2c(=O)[nH]c(-c3ccc(OCCO)c(-c4ccc(S(C)(=O)=O)cc4)n3)nc2c1 | > 300
28 | NC(=O)[C@@H]1[C@H](Nc2c(Br)cnc3[nH]c(-c4ccccc4-n4cccn4)nc23)[C@H]2C=C[C@@H]1C2 | 120
29 | CC(=O)Cc1ccc(CC2SC(=N)NC2=O)cc1 (stereo not given) | 196 to 198
30 | N=C(N)Nc1ccc(Cl)c(Cl)c1 | 208
31 | CC(C)(C)OC(=O)OC(=O)c1ccc(NNC(N)=S)cc1 | 161 to 163
32 | C=C1CC2(C)CC(=O)C(C)(C)C12 (stereo not given) | -23 to -20
33 | OCc1c(Cl)ccc(C2OCCO2)c1Cl | 82 to 85
34 | Cc1nc(-c2ccc(Cl)cc2)nn1CCC=O | 108 to 109
35 | COc1cc2c(cc1Cl)C(O)Cc1ccc(F)cc1S2 (stereo not given) | 143 to 145
36 | O=C1N[C@H](Cc2ccc(C(F)(F)F)cc2)[C@H](c2ccc(F)cc2F)O1 (racemic) | 147 to 148
37 | C[C@@H]1Cc2cc3c(cc2C(c2ccc([N+](=O)[O-])c(Cl)c2)=NN1)OCO3 | 165 to 170
38 | CC(C)OC(=O)c1nc2ccc(OCCCN3CCC(OC(c4ccccc4)c4ccccc4)CC3)nn2n1 | 126 to 127
39 | O=[N+]([O-])c1cc(-c2ccncc2)ccc1Cl | 110 to 111
40 | CC(C)=CC(O)C(Br)(Br)Br (stereo not given) | 81.5 to 82
41 | CC(=O)OC1(Cc2ccccn2)C(=O)N(N2CCOCC2)c2ccccc21 (stereo not given) | 107 to 110
42 | O=C1CCN(C(=O)C(F)(F)F)CC1 | 68
43 | CN(C)C=NC(=N[N+](=O)[O-])NC1CC1 | 120 to 122
44 | CCOC(=O)Cc1cn(Cc2ccccc2)nc1OCc1ccc(OCc2nc(-c3ccccc3)oc2C)c(OC)c1 | 86 to 87
45 | Nc1scc2c1C(=O)c1c-2ccc(Cl)c1Cl | 254 to 255
46 | CCOC(=O)C(Cl)=Cc1cccc([N+](=O)[O-])c1 | 75
47 | COc1cccc(C=C2SC(=S)N(CC(=O)O)C2=O)c1-c1cc2c(cc1C)C(C)(C)CCC2(C)C | 149
48 | O=C(O)COc1cccc(COC(=O)N(c2ccccc2)c2ccccc2)c1 | 142 to 144
49 | C/C(=C\CC1SC(=O)NC1=O)c1cccc(OCc2nc(-c3ccc(OC(F)(F)F)cc3)oc2C)c1 (stereo not given) | 50 to 51
50 | O=C(O)c1cccc(-c2nc(=O)c3ccccc3s2)n1 | 260

Row | SMILES | melting point [°C]
51 | CC1(C)COS(=O)(=O)OC1 | 80 to 82
52 | O=P(c1ccccc1)(c1ccccc1)c1cc(O)ccc1O | 216 to 218
53 | COC(=O)CN1C(=O)CC1SCc1ccc(OC)cc1 (stereo not given) | 45 to 46
54 | O=c1c2ccccc2nc2n1CCc1c-2[nH]c2ccc(Cl)cc12 | 310 to 312
55 | Cc1ccc(CCCCCCCCCCC(Cl)(Cl)C(=O)O)cc1 | 58 to 59
56 | COS(=O)(=O)CS(C)(=O)=O | 101 to 104
57 | CCSCCCN(C)c1c(S(=O)(=O)C(F)(F)F)c(C#N)nn1-c1c(Cl)cc(C(F)(F)F)cc1Cl | 89
58 | CC(C)(COC(=O)OOC(=O)OCC(C)(C)c1ccccc1)c1ccccc1 | 59 to 60
59 | O=c1cc(-c2ccccc2)oc2c(CN3CCN(CCO)CC3)c(O)c(O)c(O)c12 | 192
60 | C=C1N(CCCCCCC)C(=O)OC12CCN(Cc1ccccc1)CC2 | 47 to 48
61 | COc1cc(OC)c(-c2cccs2)cc1C#CC(=O)c1cc(OC)c(OCC(=O)O)c(OC)c1 | 192 to 194
62 | CCOCn1c(-c2sc(Cl)c(Cl)c2Cl)c(C#N)c(Br)c1C(F)(F)F | 85 to 87
63 | C#Cc1ccc(C#C)cc1 | 91 to 92
64 | N#Cc1ccc(NC(=O)CN2CCC(Cc3ccccc3)CC2)cc1 | 120 to 124
65 | CN1Cc2c(C#CCO)ncn2-c2cccc(Cl)c2C1=O | 250 to 252
66 | COCC1CN(c2ccc3ccc(O)cc3c2)C(=O)O1 (stereo not given) | 155 to 157
67 | COc1cc2c(cc1O)CCN(c1cc(N)c3cc(OC)c(OC)cc3n1)C2 | 250 to 251
68 | COc1cc2c(cc1OC)C(c1sc(O)nc1C)=NCC2 | 114 to 120
69 | COc1cc(C(C)=O)c(O)cc1N1CCN(Cc2ccccc2)CC1 | 90 to 92
70 | COc1cc2c(cc1OC)C(C(CO)CO)=NCC2 | 129
71 | CCCc1c(OC(C(=O)OCC)c2ccc(Cl)c(Cl)c2)ccc(C(C)=O)c1O (stereo not given) | 77 to 79
72 | Cc1ccc(S(=O)(=O)OCC2CCN(C(=O)c3cccc(C)c3)CC2)cc1 | 68 to 70
73 | CCOC(=O)C1=C(COCCN)NC=C(C(=O)OC)C1c1cccc(C(F)(F)F)c1Cl (stereo not given) | 122
74 | O=C(NC(Cc1ccc(OCc2ccccc2)cc1)C(=O)O)c1cn2cc(-c3ccc(Cl)cc3)ccc2n1 (stereo not given) | 270 to 271
75 | CC(=O)c1c(C)oc2c(-n3c(=O)cc(C(F)(F)F)n(C)c3=O)c(F)cc(Cl)c12 | 138 to 140

Row | SMILES | melting point [°C]
76 | ON=C(Cc1ccc(Cl)cc1)c1ccc(Cl)cc1Cl | 91
77 | COc1ccc(C2=NN(c3ccc(O)cc3)C(=O)[C@@H]3CC=CC[C@H]23)cc1OC | 111 to 112
78 | Nc1cc(S(N)(=O)=O)ccc1S(=O)(=O)CCCO | 136 to 138
79 | CS(=O)(=O)N1CCC(CO)CC1 | 96 to 97
80 | OCc1ccc(N2CCN(Cc3ccc4ccccc4n3)CC2)cc1 | 126 to 127
81 | CC(C)C1NS(=O)(=O)N(COC(=O)c2c(Cl)cccc2Cl)C1=O (stereo not given) | 151 to 152
82 | COc1cc(NS(=O)(=O)c2ccc(Cl)cc2)c(C(=O)Cl)cc1OC | 175 to 177
83 | COC(=O)c1cc(O)cc(OC)c1 | 85 to 86
84 | COc1ccc(-n2cccc2-c2ccc(S(N)(=O)=O)cc2)cc1 | 112 to 114
85 | COc1ccc2[nH]c(SCC3(N4CCCC4)NC=NC(N4CCCC4)=C3C)nc2c1 (stereo not given) | 104 to 106
86 | CCN1C(=O)C(C)(C)C(=O)N(C)c2cc(CN(CCn3cc(C)c4occc4c3=O)Cc3cncn3C)ccc21 | 100 to 105
87 | NC(=O)Cn1cc2c(n1)CN=C(c1ccccc1)c1cc(Cl)ccc1-2 | 236 to 238
88 | O=C1Cc2cccc(Oc3cccc(Cl)c3)c2O1 | 105 to 106
89 | CC(=O)Nc1cc(-c2ccncc2)cc2nc(-c3ccc(C)o3)nn12 | 257 to 259
90 | Cc1ccccc1C(=O)Nc1ccc(-n2nc(C(F)(F)F)cc2C(F)(F)F)cc1 | 165 to 167
91 | COCOc1cccc2c(=O)[nH]c(CCCN(C)C)cc12 | 110 to 112
92 | O[C@@H]1CNC[C@H]1Sc1ccccc1 (relative stereo) | 140 to 141
93 | N#CCc1cc(O)cc2nc(-c3ccc(O)cc3)oc12 | 170 to 180
94 | CN(C)c1ccc(CNC(=O)c2ccccc2O)cc1 | 129 to 132
95 | COc1ccc2oc(C)c(Cc3cccc(NS(=O)(=O)C(F)(F)F)c3)c(=O)c2c1 | 172 to 174
96 | COC(=O)c1cc(I)c(C(F)(F)F)cc1NC(C)=O | 96 to 98
97 | NCCNS(=O)(=O)c1cc(NC(=O)c2cnn3c(C(F)F)cc(-c4ccc(C(F)(F)F)cc4)nc23)c(Cl)s1 | 150
98 | CC1=Nc2cc(C)c(C)cc2C(=O)C1 | 120 to 122
99 | CC(C)(C)OC(=O)NCc1[nH]c(=O)c2ccc(C#N)cc2c1-c1ccc(Cl)cc1 | 234 to 235
100 | CC(C)c1nc(C(C)C)c(CSc2ccc(O)cc2)c(-c2ccc(F)cc2)c1CO | 178 to 179
